Test [1] relates to J774A.1 cells (a macrophage cell line). As to the kind of experiment: Suppression of LPS-stimulated TNF secretion by cyclic analogues of Copaxone (Example 6). Particulars: for TNF concentration: peptide 12.5 ug/ml as cyclodextrin complex, LPS 0.1 ug/ml, medium + LPS 637.6. The test is classed as cell-based. The method, then:
• 1. Two cyclic oligopeptides were prepared with the following structures: cyclo(-A-K-Σ-Y-E-K-A-Σ-E-Y-) cyclo(-A-K-Σ-E-Y-K-A-Σ-Y-E-) • All amino acids are in the L form unless indicated otherwise. • All amino acids are linked by peptide bonds. • A, K, Y and E represent the epitope-forming amino acids and Σ represents the associating functional group borne on the associating amino acid wherein the associating amino acid is an L-alpha aminocarboxylic acid and the associating functional group is a side-chain residue consisting of a straight aliphatic chain containing ten carbon atoms. • The cyclic oligopeptides were prepared as solutions in hexafluoro-isopropanol (HFIP) at a concentration of 10 mg/ml, then mixed with equal volumes of HFIP solution containing beta-hydroxypropyl cyclodextrin at a concentration of 50 mg/ml. The organic solutions were then dried down under nitrogen, and the peptide/cyclodextrin complex redissolved in distilled water to give a final concentration of cyclic oligopeptide of 1 mg/ml. • 2. J774A.1 cells (a macrophage cell line) were plated out in all the wells of a 24-well cluster plate at a seeding density of 3×10^5 cells/ml/well (1 ml RPMI 1640 culture medium per well), and incubated overnight at 37° C. in 5% CO2/air. • 3. The following day, the solutions from step 1 were administered to wells containing cells in step 2, to give three wells each with a final concentration of 12.5 ug/ml of peptide. Additional wells containing cyclodextrin alone at 62.5 ug/ml were also prepared. The remaining wells were left untreated. The plate was incubated for a further four hours at 37 degC. • 4. Lipopolysaccharide (from E. coli strain 0111 B4) was added to the wells receiving the cyclic oligopeptide solution, as well as three of the wells receiving no peptide. The final concentration of lipopolysaccharide was 0.1 ug/ml. • 5. The plate was incubated overnight, and the following day the supernatants were assayed for TNF using a commercial ELISA kit.

Test [2] shares this test system. The test is classed as cell-based. The note with it: peptide 12.5 ug/ml; CTB 10 ug/ml; CTB alone 690.8, medium control 67.5.
Test [3] has as its target thrombin (Homo sapiens, UniProt P00734). In words: Inhibition of enzyme activity of thrombin, fluorogenic substrate (Example 7). The test is classed as biochemical. As to the method: 1. Cyclic oligopeptides of the following structures were synthesised as previously described, and prepared in complexed form with cyclodextrin at concentration of 1 mg/ml on Hanks Balanced Salts Solution using the procedure outlined in example 6. (i) cyclo(-R-E-Σ-S-R-E-R-Σ-S-E-) (ii) cyclo(-A-K-ΣE-Y-K-A-ΣY-E-) (iii) cyclo(-dF-R-C-S-dF-R-C-S-) (iv) cyclo(-dF-S-C-R-dF-S-C-R-)
2. In wells of a […] microplate, 20 ul of thrombin solution (0.01 mg/ml) were dispensed, and mixed with 60 ul of cyclic oligopeptide solution
3. 20 ul of the substrate boc-beta-benzyl-Asp-Pro-Arg-7-amido-4-methylcoumarin hydrochloride (0.01 mg/ml) was added to each well, and the time course of generation of […] was measured.

The test system of test [4] is J774A.1 cells (a macrophage cell line). As to the kind of experiment: Suppression of LPS-stimulated TNF secretion by cyclic oligopeptides containing two different epitopes (Example 8). The test is classed as cell-based. Particulars: LPS 0.1 ug/ml. As to the method: • 1. Two cyclic oligopeptides were prepared with the following structures: (i) cyclo(-dF-S-Σ-Q-dL-S-Σ-R-) • and (ii) cyclo(-dF-S-Σ-L-dQ-S-Σ-R) • All amino acids are in the L form unless indicated otherwise. • All amino acids are linked by peptide bonds. wherein Q, L, S, R and F represent the epitope-forming amino acids and Σ represents the associating functional group borne on the associating amino acid wherein the associating amino acid is an L-alpha aminocarboxylic acid and the associating functional group is a side-chain residue consisting of a straight aliphatic chain containing ten carbon atoms.
These cyclic oligopeptides were prepared as solutions in transcutol/cyclodextrin, as described in example 4, to give a final concentration of peptide of 1 mg/ml, and cyclodextrin at 20 mg/ml. • 2. J774A.1 cells (a macrophage cell line) were plated out in all the wells of three 24-well cluster plates at a seeding density of 3×10^5 cells/ml/well (1 ml RPMI 1640 culture medium per well), and incubated overnight at 37° C. in 5% CO2/air. • 3. The following day, the solutions from step 1 were administered to wells containing cells in step 2, to give three wells each with a final concentration of 50, 25, 12.5, 6.25 or 3.125 ug/ml of cyclic oligopeptide. Additional wells containing cyclodextrin at 1, 0.5, 0.25, 0.125 and 0.0625 mg/ml were also prepared. The remaining wells were left untreated. The plate was incubated for a further four hours at 37 degC. • 4. Lipopolysaccharide (from E. coli strain 0111 B4) was added to the wells receiving the octapeptide solution, as well as three of the wells receiving no peptide. The final concentration of lipopolysaccharide was 0.1 ug/ml. • 5. The plate was incubated overnight, and the following day the supernatants were assayed for TNF using a commercial ELISA kit.

This is an account of results in patent publication US9096650B2, “Cyclic oligopeptides for binding to a target ligand” (LEXCICON LIMITED, priority 2006, dated 2015).

[ ]: non-standard residue; d: D form. Gly(decyl) = CCCCCCCCCC[C@H](N)C(=O)O

Turning to “cyclo(-A-K-Σ-E-Y-K-A-Σ-Y-E-) (cyclo(AK[Gly(decyl)]EYKA[Gly(decyl)]YE); SMILES CCCCCCCCCC[C@@H]1NC(=O)[C@H](C)NC(=O)[C@H](CCCCN)NC(=O)[C@H](Cc2ccc(O)cc2)NC(=O)[C@H](CCC(=O)O)NC(=O)[C@H](CCCCCCCCCC)NC(=O)[C@H](CCCCN)NC(=O)[C@H](C)NC(=O)[C@H](CCC(=O)O)NC(=O)[C@H](Cc2ccc(O)cc2)NC1=O) [cyclo(-A-K-Σ-E-Y-K-A-Σ-Y-E), cyclic analogue of Copaxone; Σ = L-alpha aminocarboxylic acid with straight C10 side chain]”, the TNF concentration in test [1] was 928.8 pg/mL.
Consider “cyclo(-A-K-Σ-Y-E-K-A-Σ-E-Y-) [cyclo(-A-K-Σ-Y-E-K-A-Σ-E-Y)]”, for which the “effect on TNF secretion by macrophages compared with Copaxone” value in test [1] (in words) is reported as “displays the same effect on TNF secretion by macrophages”. Further, the TNF concentration in test [1] was 486.9 pg/mL.
For cyclo(-DF-R-Σ10-S-DF-R-Σ10-S-), the “Concentration of TNF” value in test [2] stood at 268.5 pg/mL.
The same measure, in the same setting: for cyclo(-DF-S-Σ10-R-DF-S-Σ10-R-) the value was 85.7 pg/mL.
Same read-out and setting: for cyclo(-DF-S-Σ4-R-DF-S-Σ4-R-) the value was 621.1 pg/mL.
Regarding “cyclo(-dF-S-Σ-L-dQ-S-Σ-R) [Example 8 (ii)]”, the “Thrombin proteolytic activity (Fluorescence Units - Arbitrary Units)” value was 410.8 Arbitrary Units in test [3] (time 2.0 minutes, enzyme alone 770.9, lower = more inhibition); 816.4 Arbitrary Units in test [3] (time 5.0 minutes, enzyme alone 1821.1); 1189.4 Arbitrary Units in test [3] (time 10.0 minutes, enzyme alone 2163.5); 1398.6 Arbitrary Units in test [3] (time 15.0 minutes, enzyme alone 2253.2); 1592.1 Arbitrary Units in test [3] (time 20.0 minutes, enzyme alone 2345.8); 1673.2 Arbitrary Units in test [3] (time 25.0 minutes, enzyme alone 2359.0). Besides, the TNF concentration in test [4] (peptide 3.125 ug/ml, 2856 = maximum detectable limit) amounted to 2648 ± 43 pg/mL; in test [4] (peptide 6.25 ug/ml), 2325 ± 67 pg/mL; in test [4] (peptide 12.5 ug/ml), 1748 ± 20 pg/mL; in test [4] (peptide 25 ug/ml), 1437 ± 85 pg/mL; in test [4] (peptide 50 ug/ml), 1081 ± 142 pg/mL.
Take cyclo(-DF-R-Σ4-S-DF-R-Σ4-S-): the “Concentration of TNF” value in test [2] stood at 664.4 pg/mL.
